# Assay results: article PMC5303205, “Comparative studies on the multi-component pharmacokinetics of Aristolochiae Fructus and honey-fried Aristolochiae Fructus extracts after oral administration in rats” (BMC Complementary and Alternative Medicine, 2017)
# Read-outs that look alike come from different tables or passages of the source.
# Key:
# [1] = Stability of AAs in rat plasma (QC samples, HPLC-MS/MS); format: in vitro ADME; settings: n = 5; for Short-term stability (RSD/%): fresh rat plasma at room temperature for 24 h before sample preparation; for Post-preparation stability (RSD/%): prepared rat plasma samples at room temperature for 24 h; for Long-term stability (RSD/%): rat plasma stored at –20 °C for 14 days; for Freeze-thaw stability (RSD/%): rat plasma, three freeze-thaw cycles (–20 °C 24 h, thawed at room temperature)
# Method: The QC samples were assayed under several different conditions to evaluate the stability of AAs in rat plasma. The freeze-thaw stability of the analyte was determined over three freeze-thaw cycles. In each freeze-thaw cycle, the samples were frozen and stored at –20 °C for 24 h, then thawed at room temperature. To evaluate the long-term stability of AAs, the plasma samples were stored at –20 °C for 14 days. For the short-term stability, fresh plasma samples were kept at room temperature for 24 h before the sample preparation. After keeping the samples at room temperature for 24 h, post-preparation stability was tested. Stability was evaluated by comparing the mean concentration of the stored samples with the mean concentration of those prepared freshly. The stability data were acceptable when the bias was within ±15% of the actual value.
# [2] = Multi-component pharmacokinetics of AAs in rats after oral administration of AF and HAF extracts (HPLC-MS/MS of plasma); parameters: species or system Sprague–Dawley (SD) rats; settings: Sprague-Dawley, rat, in vivo
# Method: An aliquot (100 μl) of rat plasma was spiked with 10.0 μL IS, and vortexed with 300 μL acetic ether for 10 s before the supernatant was transferred into centrifuge tube. The extraction was repeated with 200 μL acetic ether. The combined organic layer was evaporated to dryness under a gentle stream of nitrogen at RT. The residue was resolved in 100 μL methanol and centrifuged at 15,800 × g for 10 min. The supernatant was used for HPLC-MS/MS analysis.
# Chromatographic separation was performed by an Acquity C18 column (4.6 × 100 mm,3.5 μm) (Agilent Technologies, USA). The mobile phase was composed of water (containing 10 mM ammonium formate and formic acid, pH 3.0) (solvent A) and ACN (solvent B). The gradient profile of B was: 0–10 min, 35–38%; 10–11 min, 38– 60%; 11–17 min, 60–35%B; 17–18 min, 35%. The flow rate was kept at 0.5 mL/min. The column oven was set at 30 °C and the injection volume was 10 μL.
# The mass spectrometer was operated in the positive ion electrospray mode with multiple reaction monitoring (MRM). The optimal MS parameters were set at the following parameters: a desolvation gas temperature of 450 °C, desolvation gas flow of 10 L/min, a nebulizer gas of 40 psi and a capillary voltage of 4000 V. The mass spectrometry conditions of AA I, AA II, AA C, AA D, 7-OH AA I and IS are summarized in Additional file 1: Table S1.
# The rats were randomly divided into 6 groups (low, middle and high doses of AF and HAF; n = 6). After a week of acclimation, the animals were fasted for 12 h with free access to water. Then, AF and HAF extracts were administered to the rats. The extracts were suspended in 0.5% CMC–Na solution, and the oral doses (according to AA I in the extracts) were 3.0 mg/kg, 8.0 mg/kg and 15.0 mg/kg, respectively.
# Blood samples were collected from the ocular vein using dried heparinized tubes at 0, 0.083, 0.17, 0.33, 0.50, 0.67, 0.83, 1, 2, 4, 6, 8, 10, 12 and 24 h from the start. The animals received fluid replacement (sterile isotonic saline) after every two samplings since the fifth collecting. The samples were then immediately centrifuged at 3100 × g for 10 min. The plasma obtained was frozen and stored at –20 °C until analysis.
# All statistical analyses were performed using the SPSS 11.0 software (Chicago, USA). P values <0.05 were considered statistically significant. Pharmacokinetic analysis was performed using the proprietary DAS 3.0 software (Mathematical Pharmacology Professional Committee of China, Shanghai, China).
# After the oral administration of AF and HAF extracts, rat plasma samples were prepared and analyzed as described above. Five main AAs can be detected in rat blood with the proposed HPLC-MS/MS method. The mean pharmacokinetic parameters of five AAs in AF and HAF are summarized in Tables 4, 5 and Additional files 5, 6, 7: Tables S4-S6. The maximum concentration (C max) was the experimentally-observed value. The other pharmacokinetic parameters of the five analytes were fitted by DAS 3.0 software.
# [3] = high QC conc ng/mL: AA I 1830, AA II 3200, AA C 2980, AA D 3680, 7-OH AA I 3280
# [4] = low QC conc ng/mL: AA I 1.83, AA II 8.00, AA C 186.3, AA D 36.8, 7-OH AA I 82.0
# [5] = middle QC conc ng/mL: AA I 457.5, AA II 400, AA C 372.5, AA D 460, 7-OH AA I 410
# [6] = 3 mg/kg, AF extract, low dose (3.0 mg/kg as AA I), analyte dose mg/kg: AA I 3.0, AA II 0.21, AA C 1.42, AA D 1.60, 7-OH AA I 2.33, n = 6
# [7] = 3 mg/kg, HAF extract, low dose (3.0 mg/kg as AA I), analyte dose mg/kg: AA I 3.0, AA II 0.26, AA C 1.53, AA D 1.51, 7-OH AA I 2.48, n = 6
# [8] = 8 mg/kg, AF extract, mid dose (8.0 mg/kg as AA I), analyte dose mg/kg: AA I 8.0, AA II 0.56, AA C 3.78, AA D 4.26, 7-OH AA I 6.22, n = 6
# [9] = 8 mg/kg, HAF extract, mid dose (8.0 mg/kg as AA I), analyte dose mg/kg: AA I 8.0, AA II 0.69, AA C 4.09, AA D 4.03, 7-OH AA I 6.62, n = 6
# [10] = 15 mg/kg, AF extract, high dose (15.0 mg/kg as AA I), analyte dose mg/kg: AA I 15.0, AA II 1.05, AA C 7.09, AA D 8.00, 7-OH AA I 11.66, n = 6
# [11] = 15 mg/kg, HAF extract, high dose (15.0 mg/kg as AA I), analyte dose mg/kg: AA I 15.0, AA II 1.29, AA C 7.66, AA D 7.56, 7-OH AA I 12.41, n = 6
smiles,measurement,setting,value
COc1c(O)ccc2c1cc([N+](=O)[O-])c1c(C(=O)O)cc3c(c12)OCO3 [7-OH AA I],Short-term stability (RSD/%),[1]; [3],9.1%
same,Short-term stability (RSD/%),[1]; [4],7.1%
same,Short-term stability (RSD/%),[1]; [5],11.8%
same,Post-preparation stability (RSD/%),[1]; [3],6.7%
same,Post-preparation stability (RSD/%),[1]; [4],5.1%
same,Post-preparation stability (RSD/%),[1]; [5],4.2%
same,Long-term stability (RSD/%),[1]; [3],11.1%
same,Long-term stability (RSD/%),[1]; [4],2.0%
same,Long-term stability (RSD/%),[1]; [5],6.4%
same,Freeze-thaw stability (RSD/%),[1]; [3],13.4%
same,Freeze-thaw stability (RSD/%),[1]; [4],6.2%
same,Freeze-thaw stability (RSD/%),[1]; [5],12.3%
same,AUC(0-inf),[2]; [6],602 ng·h/mL
same,Cmax,[2]; [6],214 ng/mL
same,Tmax,[2]; [6],38.4 min
same,CL/F,"[2]; 3 mg/kg, AF extract, low dose (3.0 mg/kg as AA I), analyte dose mg/kg: AA I 3.0, AA II 0.21, AA C 1.42, AA D 1.60, 7-OH AA I 2.33, n = 6, read-out: CLz/F (converted)",71.5 mL/min/kg
same,Vd/F,"[2]; 3 mg/kg, AF extract, low dose (3.0 mg/kg as AA I), analyte dose mg/kg: AA I 3.0, AA II 0.21, AA C 1.42, AA D 1.60, 7-OH AA I 2.33, n = 6, read-out: Vz/F",24.7 L/kg
same,half-life,"[2]; 3 mg/kg, AF extract, low dose (3.0 mg/kg as AA I), analyte dose mg/kg: AA I 3.0, AA II 0.21, AA C 1.42, AA D 1.60, 7-OH AA I 2.33, n = 6, read-out: t 1/2z (converted)",230 min
same,AUC(0-inf),[2]; [7],620 ng·h/mL
same,Cmax,[2]; [7],216 ng/mL
same,Tmax,[2]; [7],30 min
same,CL/F,"[2]; 3 mg/kg, HAF extract, low dose (3.0 mg/kg as AA I), analyte dose mg/kg: AA I 3.0, AA II 0.26, AA C 1.53, AA D 1.51, 7-OH AA I 2.48, n = 6, read-out: CLz/F (converted)",81.3 mL/min/kg
same,Vd/F,"[2]; 3 mg/kg, HAF extract, low dose (3.0 mg/kg as AA I), analyte dose mg/kg: AA I 3.0, AA II 0.26, AA C 1.53, AA D 1.51, 7-OH AA I 2.48, n = 6, read-out: Vz/F",17.5 L/kg
same,half-life,"[2]; 3 mg/kg, HAF extract, low dose (3.0 mg/kg as AA I), analyte dose mg/kg: AA I 3.0, AA II 0.26, AA C 1.53, AA D 1.51, 7-OH AA I 2.48, n = 6, read-out: t 1/2z (converted)",165 min
same,AUC(0-inf),[2]; [8],1160 ng·h/mL
same,Cmax,[2]; [8],404 ng/mL
same,Tmax,[2]; [8],43.2 min
same,CL/F,"[2]; 8 mg/kg, AF extract, mid dose (8.0 mg/kg as AA I), analyte dose mg/kg: AA I 8.0, AA II 0.56, AA C 3.78, AA D 4.26, 7-OH AA I 6.22, n = 6, read-out: CLz/F (converted)",92.5 mL/min/kg
same,Vd/F,"[2]; 8 mg/kg, AF extract, mid dose (8.0 mg/kg as AA I), analyte dose mg/kg: AA I 8.0, AA II 0.56, AA C 3.78, AA D 4.26, 7-OH AA I 6.22, n = 6, read-out: Vz/F",26.1 L/kg
same,half-life,"[2]; 8 mg/kg, AF extract, mid dose (8.0 mg/kg as AA I), analyte dose mg/kg: AA I 8.0, AA II 0.56, AA C 3.78, AA D 4.26, 7-OH AA I 6.22, n = 6, read-out: t 1/2z (converted)",195 min
same,AUC(0-inf),[2]; [9],991 ng·h/mL
same,Cmax,[2]; [9],366 ng/mL
same,Tmax,[2]; [9],40.2 min
same,CL/F,"[2]; 8 mg/kg, HAF extract, mid dose (8.0 mg/kg as AA I), analyte dose mg/kg: AA I 8.0, AA II 0.69, AA C 4.09, AA D 4.03, 7-OH AA I 6.62, n = 6, read-out: CLz/F (converted)",109 mL/min/kg
same,Vd/F,"[2]; 8 mg/kg, HAF extract, mid dose (8.0 mg/kg as AA I), analyte dose mg/kg: AA I 8.0, AA II 0.69, AA C 4.09, AA D 4.03, 7-OH AA I 6.62, n = 6, read-out: Vz/F",25.4 L/kg
same,half-life,"[2]; 8 mg/kg, HAF extract, mid dose (8.0 mg/kg as AA I), analyte dose mg/kg: AA I 8.0, AA II 0.69, AA C 4.09, AA D 4.03, 7-OH AA I 6.62, n = 6, read-out: t 1/2z (converted)",153 min
same,AUC(0-inf),[2]; [10],1320 ng·h/mL
same,Cmax,[2]; [10],566 ng/mL
same,Tmax,[2]; [10],30 min
same,CL/F,"[2]; 15 mg/kg, AF extract, high dose (15.0 mg/kg as AA I), analyte dose mg/kg: AA I 15.0, AA II 1.05, AA C 7.09, AA D 8.00, 7-OH AA I 11.66, n = 6, read-out: CLz/F (converted)",174 mL/min/kg
same,Vd/F,"[2]; 15 mg/kg, AF extract, high dose (15.0 mg/kg as AA I), analyte dose mg/kg: AA I 15.0, AA II 1.05, AA C 7.09, AA D 8.00, 7-OH AA I 11.66, n = 6, read-out: Vz/F",52.3 L/kg
same,half-life,"[2]; 15 mg/kg, AF extract, high dose (15.0 mg/kg as AA I), analyte dose mg/kg: AA I 15.0, AA II 1.05, AA C 7.09, AA D 8.00, 7-OH AA I 11.66, n = 6, read-out: t 1/2z (converted)",207 min
same,AUC(0-inf),[2]; [11],1130 ng·h/mL
same,Cmax,[2]; [11],531 ng/mL
same,Tmax,[2]; [11],31.8 min
same,CL/F,"[2]; 15 mg/kg, HAF extract, high dose (15.0 mg/kg as AA I), analyte dose mg/kg: AA I 15.0, AA II 1.29, AA C 7.66, AA D 7.56, 7-OH AA I 12.41, n = 6, read-out: CLz/F (converted)",207 mL/min/kg
same,Vd/F,"[2]; 15 mg/kg, HAF extract, high dose (15.0 mg/kg as AA I), analyte dose mg/kg: AA I 15.0, AA II 1.29, AA C 7.66, AA D 7.56, 7-OH AA I 12.41, n = 6, read-out: Vz/F",47.4 L/kg
same,half-life,"[2]; 15 mg/kg, HAF extract, high dose (15.0 mg/kg as AA I), analyte dose mg/kg: AA I 15.0, AA II 1.29, AA C 7.66, AA D 7.56, 7-OH AA I 12.41, n = 6, read-out: t 1/2z (converted)",176 min
